Patent US20230404995A1, “COMPOSITIONS AND METHODS FOR TREATING PULMONARY FIBROSIS” (priority 2020, published 2023)

Assays:
[1] = test system: WI-38 lung fibroblasts; assay: Growth factor induced hyper-proliferation of WI-38 lung fibroblasts
[2] = test system: WI-38 lung fibroblasts; assay: TGF-β induced collagen production in WI-38 lung fibroblasts (immunofluorescent imaging); assay type: cell-based; settings: serum starved WI-38, TGF-β 5 ng/ml, 48 hours, quinacrine 2.5 μM; FIG. 2D
Procedure: It is well established that during fibrotic diseases, fibroblasts and epithelial cells are transformed in myofibroblasts (mesenchymal cells), which secrete excess amount of extracellular matrix (ECM), one of the major components being interstitial collagen at the site of tissue injury. Serum starved WI-38 lung fibroblasts were activated with TGF-β (5 ng/ml; 48 hours), and QA's efficacy's in inhibiting collagen production due to transition of fibroblasts in collagen-secreting fibroblasts was tested.

[3] = test system: A549 alveolar epithelial cells; assay: TGF-β induced epithelial-mesenchymal transition (EMT) in A549 cells: morphology and E-cadherin expression
[4] = test system: HBE cells; assay: TGF-β induced epithelial-mesenchymal transition (EMT) in HBE cells, cell imaging; assay type: cell-based, human; settings: TGF-β 10 ng/mL, QA 0.5, 1, 2.5 and 5 μM tested, 24 and 48 hours, FIG. 4
Procedure: For TGF-β induced epithelial mesenchymal transition (EMT) images, HBE cells (50,000 cells/well) were seeded in a 6-well culture plate. Next day, all treatments (except the medium control) were starved with replacement of growth factor-absent media. After 24 hours incubation, the QA treatments were administered: 0.5, 1, 2.5, and 5 μM. Each treatment also included 10 ng/mL of TGF-β. The remaining 2 wells were treated with regular media and TGF-β as the negative control and positive control, respectively. Individual images of the cells were taken with an EVOS-FL Cell imaging fluorescence microscope (Thermo Fisher Scientific, Waltham, MA, USA) after 24 and 48 hours.
EMT is presented by morphological changes following TGF-beta treatment, and subsequent reversal with QA treatment.

[5] = test system: primary human bronchial epithelial (HBE) cells; assay: Cell viability of HBE cells (Cell Titer Blue cell viability kit); assay type: cell-based; settings: QA 0.039-10 μM, 24 hours, FIG. 3
Procedure: A cell viability study was carried out on HBE cells using Cell Titer Blue cell viability kit. Briefly, cells were treated with varying concentrations of QA (0.039-10 μM), for 24 hours, and media was used as a control. Fluorescence readings were taken at 540/590 nm using a Spark 10M Plate Reader (Tecan, Switzerland).

`CCN(CC)CCCC(C)Nc1c2ccc(Cl)cc2nc2ccc(OC)cc12` (stereo not shown) [QA, quinacrine] was tested, and the FGF induced hyper-proliferation ([1]; WI-38, FGF 10 ng/ml, 72 hours, FIG. 2C) was “dose-dependent reduction”, the PDGF-BB induced hyper-proliferation ([1]; WI-38, PDGF-BB 10 ng/ml, 72 hours, FIG. 2B) was “dose-dependent reduction” and the “fibroblast proliferation in the presence of TGF-β” value ([1]; WI-38, TGF-β 10 ng/ml, 48 hours, FIG. 2A) was “dose-dependent reduction”. For the same molecule, the “viability (cytotoxicity of the QA doses used)” value ([1]; WI-38 lung fibroblasts, all doses of QA used in the proliferation study) was over 90%, the collagen expression [2] was “significantly reduced” and the “E-cadherin expression, western blot (compared to β-actin)” value ([3]; A549 cells co-incubated with QA 2.5 μM and TGF-β 5 ng/ml, TGF-β alone gave 40% reduction, FIGS. 1C-D) was “completely restored”. The “E-cadherin expression, immunofluorescence” value ([3]; A549 cells, TGF-β 5 ng/ml, 48 h, simultaneous QA 2.5 μM, FIG. 1B) was “restored”, the “cell morphology, protection against TGF-β induced EMT” value ([3]; serum starved A549 cells, TGF-β 5 ng/ml with simultaneous QA 2.5 μM, FIG. 1A) was “reversing fibroblastic morphology induced by TGF-β treatment” and the “lowest concentrations that effectively inhibited TGF-beta induced EMT (morphological changes)” value [4] was 0.5-1 μM. For the same molecule, the cell viability [5] was over 85%.
